Values of other authors as cited in patent publication US7829124B2, “Use of Phyllanthus constituents for treating or preventing infections caused by hepatitis B-viruses” (priority 2001, dated 2010).

Columns and labels:
[1] = molecular target: T1, cAMP-dependent protein kinase of the rat liver (Rattus norvegicus, UniProt P27791)
T1 construct: the cAMP-dependent protein kinase of the rat liver; host or cells: rat liver

[2] = tested on: CA^2+- and phopholipid-dependent protein kinase C (PKC) of the rat brain
[3] = tested on: CA^2+-dependent protein kinase of the wheat embryo
Bacillus subtilis = conditions: 0.1 ml; extract 50 mg/ml, streptomycin 10 mg/ml
Staphylococcus aureus = conditions: 0.1 ml; extract 50 mg/ml, streptomycin 10 mg/ml
HBV = conditions: chronically infected patients

Compound | inhibition of cAMP-dependent protein kinase [1] | inhibition of protein kinase C (PKC) [2] | inhibition of CA^2+-dependent protein kinase [3] | inhibition zone (Bacillus subtilis) [mm] | inhibition zone (Staphylococcus aureus) [mm] | cases in which the virus is eliminated from the liver (HBV) | further cases with clearly reduced number of viruses in the blood (HBV) [%]
O=C1OC2C3OC(=O)C4=CC(=O)C5(O)Oc6c(O)c(O)cc(c6C4C5(O)O)C(=O)OC2C(OC(=O)c2cc(O)c(O)c(O)c2)OC3COC(=O)c2cc(O)c(O)c3c2C2C1=CC(=O)C(O)(O3)C2(O)O (stereo not shown) [amariin] | most effective | most effective | most effective |  |  |  | 
O=C1O[C@H]2[C@@H]3OC(=O)c4cc(O)c(O)c(O)c4-c4c(cc(O)c(O)c4O)C(=O)OC[C@H]2O[C@@H](OC(=O)c2cc(O)c(O)c(O)c2)[C@@H]3OC(=O)c2cc(O)c(O)c3c2[C@@H]2C1=CC(=O)[C@](O)(O3)C2(O)O [geraniin] | most effective | most effective | most effective |  |  |  | 
[H]/N=C(/N)N[C@H]1[C@H](O)[C@@H](O)[C@H](O[C@@H]2O[C@@H](C)[C@](O)(C=O)[C@H]2O[C@@H]2O[C@@H](CO)[C@H](O)[C@@H](O)[C@@H]2NC)[C@@H](N/C(N)=N\[H])[C@@H]1O [streptomycin] |  |  |  | 35 | 35 |  | 
interferon α |  |  |  |  |  | 20-30% | 30
phenazine-derivative of the geraniin | most effective | most effective | most effective |  |  |  | 
